The target in one test is T1, DGKα (Homo sapiens, UniProt P23743).
Test: not given
The settings on record: literature report; cited from earlier work.
Target sequence in this assay (P23743 whole entry, species assumed): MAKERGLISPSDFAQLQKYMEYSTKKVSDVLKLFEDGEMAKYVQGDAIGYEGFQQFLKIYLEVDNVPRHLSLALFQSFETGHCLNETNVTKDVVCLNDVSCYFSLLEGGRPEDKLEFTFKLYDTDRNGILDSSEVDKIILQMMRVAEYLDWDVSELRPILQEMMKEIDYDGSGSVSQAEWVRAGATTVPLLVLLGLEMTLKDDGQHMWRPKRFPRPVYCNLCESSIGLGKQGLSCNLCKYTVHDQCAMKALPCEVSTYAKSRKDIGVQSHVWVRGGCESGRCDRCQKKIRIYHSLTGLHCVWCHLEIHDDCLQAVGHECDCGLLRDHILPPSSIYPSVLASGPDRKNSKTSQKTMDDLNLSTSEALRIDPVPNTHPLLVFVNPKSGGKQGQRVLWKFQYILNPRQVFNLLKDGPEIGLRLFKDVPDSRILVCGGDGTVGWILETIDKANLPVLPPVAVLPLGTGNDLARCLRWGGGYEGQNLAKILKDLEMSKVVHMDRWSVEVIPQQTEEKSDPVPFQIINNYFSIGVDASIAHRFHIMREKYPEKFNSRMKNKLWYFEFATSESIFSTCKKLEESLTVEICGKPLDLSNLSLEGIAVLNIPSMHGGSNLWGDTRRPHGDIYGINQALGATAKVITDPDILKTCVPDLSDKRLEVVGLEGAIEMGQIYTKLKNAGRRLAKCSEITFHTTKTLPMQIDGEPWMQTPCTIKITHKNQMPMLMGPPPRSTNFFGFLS
Consider `Cc1ccc2c(C(=O)CN3CCN(C(=O)c4ccco4)CC3)c(C)[nH]c2c1` [AMB639752], for which the “inhibitory activity on DGKα” value is given as “micromolar”.

For `O=C1/C(=C\C=C\c2ccco2)SC(=S)N1NS(=O)(=O)c1ccccc1` [CU-3], the “inhibitory activity on DGKα” value was “sub-micromolar”.

In a further test the target is T1, DGKα. The test can be described thus: Human DGKα kinase activity inhibition assay (ADP-Glo). It counts as biochemical. On the set-up: made in house; host or cells: Sf9 insect cells, baculovirus. The settings on record: in vitro, C-terminally FLAG-tagged recombinant full-length human DGKα, 1,2-dioleoyl-sn-glycerol substrate, ADP-Glo readout. As for the experimental part: Human DGKα Kinase Activity Inhibition Assay. Human DGKα inhibitory activity of compounds of the present invention was quantified employing the human DGKα kinase activity assay as described in the following paragraphs. In essence, the enzyme activity was measured by quantification of the adenosine-di-phosphate (ADP) generated as a co-product of the enzyme reaction via the “ADP-Glo™ Kinase Assay” kit from the company Promega. This detection system works as follows: In a first step the ATP not consumed in the kinase reaction is quantitatively converted to […] (“ADP-Glo-reagent”), then the adenylate cyclase is stopped and the ADP generated in the kinase reaction converted to ATP, which subsequently generates in a luciferase-based reaction a glow-luminescence signal (“Kinase Detection Reagent”). C-terminally FLAG-tagged, recombinant full-length human DGKα (expressed in baculovirus infected insect cells, purified using anti-Flag pulldown and size exclusion chromatography as described below, DGKa_hu_1) was used as enzyme. As substrate for the kinase 1,2-dioleoyl-sn-glycerol, reconstituted in octyl-β-D-glucopyranoside micelles, was used. For the preparation of the micelles, 1 volume of a 16.1 mM solution of 1,2-dioleoyl-sn-glycerol (Avanti, Cat. #08001-25G) in chloroform was slowly evaporated using a nitrogen stream. Subsequently, 22.55 volumes of a 510 mM solution of octyl-β-D-glucopyranoside (Sigma-Aldrich, Cat. #08001-10G) in 50 mM MOPS buffer (pH 7.4) were added, and the mixture was sonicated in an ultrasonic bath for 20 s. Then 35 volumes of 50 mM MOPS buffer (pH 7.4) were added to yield a solution of 0.28 mM 1,2 dioleoyl-sn-glycerol and 200 mM octyl-β-D-glucopyranoside, which was aliquoted, flash-frozen in liquid nitrogen, and stored at −20° C. until use. For each experiment, a fresh aliquot was quickly thawed and diluted 24-fold with aqueous assay buffer (described below) containing 95.7 μM adenosine triphosphate (Promega) to yield a 1.67-fold concentrated substrate solution. For the assay 50 nl of a 100-fold concentrated solution of the test compound in dimethyl sulfoxide (DMSO, Sigma) was pipetted into either a white 1536-well or a white low-volume 384-well microtiter plate (both Greiner Bio-One, Frickenhausen, Germany). […] The concentration of DGK a was adjusted depending of the activity of the enzyme lot and was chosen appropriate to have the assay in the linear range, a typical concentration is about 0.1 nM. The reaction was stopped by the addition of 2.5 μl of “ADP-Glo-reagent” (1 to 1.5 diluted with water) and the resulting mixture was incubated at 22° C. for 1 h to convert the ATP no t consumed in the kinase reaction completely to […]. […] The amount of emitted light was taken as a measure for the amount of ADP generated and thereby for the activity of the DGKα.
Target sequence in this assay (P23743 with tags, fused parts or gaps): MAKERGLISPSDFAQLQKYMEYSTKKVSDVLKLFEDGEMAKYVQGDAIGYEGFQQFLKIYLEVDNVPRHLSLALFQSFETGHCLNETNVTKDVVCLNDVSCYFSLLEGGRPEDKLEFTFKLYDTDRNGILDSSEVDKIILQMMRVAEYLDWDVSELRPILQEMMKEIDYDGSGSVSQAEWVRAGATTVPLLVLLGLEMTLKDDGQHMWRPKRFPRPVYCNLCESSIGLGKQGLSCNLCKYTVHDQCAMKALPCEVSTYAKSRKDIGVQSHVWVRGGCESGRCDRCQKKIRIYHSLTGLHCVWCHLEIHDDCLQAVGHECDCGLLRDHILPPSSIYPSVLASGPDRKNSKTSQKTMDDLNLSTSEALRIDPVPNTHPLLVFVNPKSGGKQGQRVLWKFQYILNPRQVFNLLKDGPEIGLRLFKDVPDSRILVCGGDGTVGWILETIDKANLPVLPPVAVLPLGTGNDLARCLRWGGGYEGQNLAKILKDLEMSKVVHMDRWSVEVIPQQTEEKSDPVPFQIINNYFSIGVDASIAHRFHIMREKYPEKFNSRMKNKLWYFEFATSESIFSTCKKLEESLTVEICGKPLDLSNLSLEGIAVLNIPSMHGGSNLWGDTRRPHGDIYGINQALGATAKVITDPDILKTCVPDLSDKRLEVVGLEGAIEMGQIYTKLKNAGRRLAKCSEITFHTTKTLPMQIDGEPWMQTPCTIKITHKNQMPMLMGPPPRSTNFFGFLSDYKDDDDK
On to `Cn1c(=O)c(C(N)=O)c(N2CCC3(CN(c4ccc(F)cc4)C3)C2)c2ccccc21` [Example 27, 4-[2-(4-fluorophenyl)-2,6-diazaspiro[3.4]octan-6-yl]-1-methyl-2-oxo-1,2-dihydroquinoline-3-carboxamide], for which the IC50 came to 158 nM.

On to `CN(C)c1ccc(N2CC3(CCN(c4c(C(N)=O)c(=O)n(C)c5ccccc45)C3)C2)cc1` [Example 28, 4-{2-[4-(dimethylamino)phenyl]-2,6-diazaspiro[3.4]octan-6-yl}-1-methyl-2-oxo-1,2-dihydroquinoline-3-carboxamide], for which the half-maximal inhibitory concentration (IC50) turned out to be 1720 nM.

Consider `Cn1c(=O)c(C#N)c(N2CCC3(CN(c4ccc(OC(F)(F)F)cc4)C3)C2)c2ccc(Br)cc21` [Example 29, 7-bromo-1-methyl-2-oxo-4-{2-[4-(trifluoromethoxy)phenyl]-2,6-diazaspiro[3.4]octan-6-yl}-1,2-dihydroquinoline-3-carbonitrile], for which the IC50 was 46 nM.

As for `Cn1c(=O)c(C#N)c(N2CCC3(CN(c4ccc(Cl)cc4)C3)C2)c2ccc(Br)cc21` [Example 30, 7-bromo-4-[2-(4-chlorophenyl)-2,6-diazaspiro[3.4]octan-6-yl]-1-methyl-2-oxo-1,2-dihydroquinoline-3-carbonitrile], the IC50 was found to be 75 nM.

For the compound `CN1CCN(c2ccc3c(N4CCC5(CCN(c6cccc(OC(F)(F)F)c6)C5)CC4)c(C#N)c(=O)n(C)c3c2)CC1` [Example 31, 1-methyl-7-(4-methylpiperazin-1-yl)-2-oxo-4-{2-[3-(trifluoromethoxy)phenyl]-2,8-diazaspiro[4.5]decan-8-yl}-1,2-dihydroquinoline-3-carbonitrile], the IC50 was 645 nM.

Turning to `COCCN(C)c1ccc2c(N3CCC4(CCN(c5cccc(OC(F)(F)F)c5)C4)CC3)c(C#N)c(=O)n(C)c2c1` [Example 32, 7-[(2-methoxyethyl)(methyl)amino]-1-methyl-2-oxo-4-{2-[3-(trifluoromethoxy)phenyl]-2,8-diazaspiro[4.5]decan-8-yl}-1,2-dihydroquinoline-3-carbonitrile], the IC50 worked out at 38 nM.

Take `CN1CCN(c2ccc3c(N4CCC5(CCN(c6cccc(Cl)c6)C5)CC4)c(C#N)c(=O)n(C)c3c2)CC1` [Example 33, 4-[2-(3-chlorophenyl)-2,8-diazaspiro[4.5]decan-8-yl]-1-methyl-7-(4-methylpiperazin-1-yl)-2-oxo-1,2-dihydroquinoline-3-carbonitrile]: the IC50 is 1170 nM.

Turning to `COCCN(C)c1ccc2c(N3CCC4(CCN(c5cccc(Cl)c5)C4)CC3)c(C#N)c(=O)n(C)c2c1` [Example 34, 4-[2-(3-chlorophenyl)-2,8-diazaspiro[4.5]decan-8-yl]-7-[(2-methoxyethyl)(methyl)amino]-1-methyl-2-oxo-1,2-dihydroquinoline-3-carbonitrile], the IC50 came out at 19 nM.

In the case of `COCCN(C)c1ccc2c(N3CCC4(CCN(c5cccc(OC(F)(F)F)c5)C4)CC3)c(C(N)=O)c(=O)n(C)c2c1` [Example 35, 7-[(2-methoxyethyl)(methyl)amino]-1-methyl-2-oxo-4-{2-[3-(trifluoromethoxy)phenyl]-2,8-diazaspiro[4.5]decan-8-yl}-1,2-dihydroquinoline-3-carboxamide], the IC50 turned out to be 68 nM.

As for `COCCN(C)c1ccc2c(N3CCC4(CCN(c5cccc(Cl)c5)C4)CC3)c(C(N)=O)c(=O)n(C)c2c1` [Example 36, 4-[2-(3-chlorophenyl)-2,8-diazaspiro[4.5]decan-8-yl]-7-[(2-methoxyethyl)(methyl)amino]-1-methyl-2-oxo-1,2-dihydroquinoline-3-carboxamide], the IC50 came to 49 nM.

These data come from patent US20230064809A1, “SUBSTITUTED AMINOQUINOLONES AS DGKALPHA INHIBITORS FOR IMMUNE ACTIVATION” (Bayer Aktiengesellschaft, priority 2019, published 2023).
